Four molecules from ChEMBL document CHEMBL5634118, “Inhibition of Son of Sevenless Homologue 1 (SOS1): Promising therapeutic treatment for KRAS-mutant cancers” (Eur J Med Chem, 2023) can be followed below.

The structures appear in SMILES notation.

Data set [1] has as its target T1, Son of sevenless homolog 1 (Homo sapiens, UniProt Q07889).
T1 sequence (Q07889 whole entry): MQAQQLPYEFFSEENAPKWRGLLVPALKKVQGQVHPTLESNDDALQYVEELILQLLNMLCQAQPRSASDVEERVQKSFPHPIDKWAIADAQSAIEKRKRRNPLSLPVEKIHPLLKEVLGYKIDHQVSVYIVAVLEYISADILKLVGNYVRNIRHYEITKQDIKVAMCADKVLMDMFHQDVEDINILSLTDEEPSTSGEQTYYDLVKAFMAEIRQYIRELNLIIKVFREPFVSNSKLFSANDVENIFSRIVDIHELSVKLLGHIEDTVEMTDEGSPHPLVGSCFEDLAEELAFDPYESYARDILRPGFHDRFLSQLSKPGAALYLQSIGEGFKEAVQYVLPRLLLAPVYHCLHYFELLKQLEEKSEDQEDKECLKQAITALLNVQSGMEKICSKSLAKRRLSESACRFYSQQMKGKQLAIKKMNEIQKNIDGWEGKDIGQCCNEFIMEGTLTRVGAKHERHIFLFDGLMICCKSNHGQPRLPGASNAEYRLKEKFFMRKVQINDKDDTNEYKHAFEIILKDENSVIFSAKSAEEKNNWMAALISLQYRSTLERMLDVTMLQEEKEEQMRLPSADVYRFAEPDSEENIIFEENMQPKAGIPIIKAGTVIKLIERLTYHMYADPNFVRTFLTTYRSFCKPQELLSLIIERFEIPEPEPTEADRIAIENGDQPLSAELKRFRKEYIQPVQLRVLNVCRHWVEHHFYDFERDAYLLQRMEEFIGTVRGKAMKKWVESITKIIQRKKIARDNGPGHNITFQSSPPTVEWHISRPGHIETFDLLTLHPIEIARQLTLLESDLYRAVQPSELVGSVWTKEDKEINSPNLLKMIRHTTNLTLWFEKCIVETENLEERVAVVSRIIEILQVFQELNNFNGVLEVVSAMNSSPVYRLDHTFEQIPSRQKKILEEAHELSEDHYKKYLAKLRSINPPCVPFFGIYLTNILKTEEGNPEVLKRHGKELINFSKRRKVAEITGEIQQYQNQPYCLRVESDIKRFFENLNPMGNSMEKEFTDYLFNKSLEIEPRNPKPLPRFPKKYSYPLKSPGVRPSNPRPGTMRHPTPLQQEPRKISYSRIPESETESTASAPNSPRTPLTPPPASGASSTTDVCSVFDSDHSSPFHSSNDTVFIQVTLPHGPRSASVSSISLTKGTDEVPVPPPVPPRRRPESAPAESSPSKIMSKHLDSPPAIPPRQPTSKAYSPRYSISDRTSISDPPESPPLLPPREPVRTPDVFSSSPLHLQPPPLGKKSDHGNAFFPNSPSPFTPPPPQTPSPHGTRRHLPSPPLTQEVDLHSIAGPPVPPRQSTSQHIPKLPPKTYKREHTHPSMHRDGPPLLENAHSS
As to the kind of experiment: Inhibition of SOS1 in human Calu-1 cells assessed as reduction in pERK level incubated for 24 hrs by HTRF analysis. Format: cell-based. For orientation: Time-resolved FRET reads energy transfer from a long-lived donor to a nearby acceptor.

For data set [2], the system named is MIA PaCa-2. As to the kind of experiment: Antitumor activity against human MIA PaCa-2 cells xenografted in mouse model assessed as tumor growth inhibition at 50 mg/kg, po relative to control. Format: functional. The conditions noted are these: read-out: TGI.
Data set [3] is described as follows: Intrinsic clearance in mouse liver microsomes. In kind it is ADME, Microsome. The following applies: read-out: CLH. Background: Liver microsomes are a subcellular fraction often used to study metabolism.
The subject of data set [4] is MIA PaCa-2. Kind of data set: Antiproliferative activity against human MIA PaCa-2 cells assessed as reduction in cell growth measured after 48 hrs by MTT assay. Format: functional, cell-based. The conditions noted are these: MIA PaCa-2, 48 h. A general note: Tetrazolium assays rely on reduction of a dye to a coloured formazan, in cell work by metabolically active cells.

Data set [5] is described as follows: Half life in mouse. In kind it is ADME, organism-based. The conditions noted are these: in vivo.
A further data set relates to K562. Kind of data set: cells. The following applies: Homo sapiens, K562, 72 h.
The target of data set [6] is von Hippel-Lindau disease tumor suppressor/Son of sevenless homolog 1 (Homo sapiens, UniProt Q07889+P40337, G12S). As to the kind of experiment: PROTAC activity at VHL/SOS1 in human NCI-H358 cells harboring KRAS G12S mutant assessed as induction of SOS1 degradation incubated for 24 hrs by immunoblotting analysis. Format: cell-based.
For the next data set, the system named is NCI-H460. Kind of data set: Antiproliferative activity against human NCI-H460 cells harboring KRAS […] mutant assessed as inhibition of cell proliferation incubated for 7 days by CellTiterGlo-3D proliferation assay. Format: functional, cell-based. The conditions noted are these: NCI-H460, 168 h.
Data set [7] relates to NCI-H358. Kind of data set: Antitumor activity against human NCI-H358 cells harboring KRAS G12V mutant xenografted in mouse model assessed as tumor growth inhibition at 10 mg/kg, ip administered once daily for 3 weeks relative to control. Format: functional. The following applies: NCI-H358, 504 h, read-out: TGI.
Data set [8] concerns NCI-H358. As to the kind of experiment: Antitumor activity against human NCI-H358 cells harboring KRAS […] mutant xenografted in mouse model assessed as tumor growth inhibition at 10 mg/kg, ip administered once daily for 3 weeks relative to control. Format: functional. The conditions noted are these: NCI-H358, 504 h, read-out: TGI.
Data set [9] can be described thus: Half life in mouse at 10 mg/kg, ip by LC-MS analysis. Format: ADME, organism-based. The conditions noted are these: in vivo.
Another data set deals with CAL-62. As to the kind of experiment: Antiproliferative activity against human CAL-62 cells harboring KRAS G12R mutant assessed as inhibition of cell proliferation incubated for 7 days by CellTiterGlo-3D proliferation assay. In kind it is functional, cell-based. The following applies: CAL-62, 168 h.
In data set [10] the target is von Hippel-Lindau disease tumor suppressor/Son of sevenless homolog 1 (Homo sapiens, UniProt Q07889+P40337). As to the kind of experiment: PROTAC activity at VHL/SOS1 in human NCI-H358 cells assessed as induction of SOS1 protein degradation incubated for 24 hrs by Immunoblot analysis. Format: cell-based.
For data set [11], the target named is von Hippel-Lindau disease tumor suppressor/Son of sevenless homolog 1 (Homo sapiens, UniProt Q07889+P40337, G12D). Kind of data set: PROTAC activity at VHL/SOS1 in human NCI-H358 cells harboring KRAS […] mutant assessed as induction of SOS1 degradation incubated for 24 hrs by immunoblotting analysis. Format: cell-based.
Data set [12] addresses von Hippel-Lindau disease tumor suppressor/Son of sevenless homolog 1 (Homo sapiens, UniProt Q07889+P40337, G12C). Kind of data set: PROTAC activity at VHL/SOS1 in human NCI-H358 cells harboring KRAS G12C mutant assessed as induction of SOS1 degradation incubated for 24 hrs by immunoblotting analysis. Format: cell-based.
Data set [13] is described as follows: AUC in mouse at 10 mg/kg, ip by LC-MS analysis. Format: ADME, organism-based. The conditions noted are these: in vivo.
The target of data set [14] is von Hippel-Lindau disease tumor suppressor/Son of sevenless homolog 1 (Homo sapiens, UniProt Q07889+P40337, G13D). Kind of data set: PROTAC activity at VHL/SOS1 in human NCI-H358 cells harboring KRAS G13D mutant assessed as induction of SOS1 degradation incubated for 24 hrs by immunoblotting analysis. Format: cell-based.
Data set [15] has as its target von Hippel-Lindau disease tumor suppressor/Son of sevenless homolog 1 (Homo sapiens, UniProt Q07889+P40337, G12R). As to the kind of experiment: PROTAC activity at VHL/SOS1 in human NCI-H358 cells harboring KRAS G12R mutant assessed as induction of SOS1 degradation incubated for 24 hrs by immunoblotting analysis. In kind it is cell-based.
Data set [16] deals with von Hippel-Lindau disease tumor suppressor/Son of sevenless homolog 1 (Homo sapiens, UniProt Q07889+P40337, G12V). Kind of data set: PROTAC activity at VHL/SOS1 in human NCI-H358 cells harboring KRAS G12V mutant assessed as induction of SOS1 degradation incubated for 24 hrs by immunoblotting analysis. In kind it is cell-based.
The target in data set [17] is T1, Son of sevenless homolog 1. Kind of data set: Binding affinity to SOS1 (unknown origin) assessed as inhibition constant by HTRF method.
Data set [18] in a line: Half life in CD-1 mouse at 20 mg/kg, po measured after 24 hrs by LC-MS/MS analysis. In kind it is ADME, organism-based. The conditions noted are these: in vivo.
Data set [19] is described as follows: Volume of distribution at steady state in CD-1 mouse at 5 mg/kg, ip measured after 24 hrs by LC-MS/MS analysis. In kind it is ADME, organism-based. The conditions noted are these: in vivo.
A short description of data set [20]: Oral bioavailability in CD-1 mouse at 20 mg/kg measured upto 24 hrs by LC/MS/MS analysis. In kind it is ADME, organism-based. The conditions noted are these: in vivo.
The target of data set [21] is T1, Son of sevenless homolog 1. As to the kind of experiment: Inhibition of SOS1 (unknown origin) by HTRF assay.
Data set [22] concerns the target Epidermal growth factor receptor (Homo sapiens, UniProt P00533). Kind of data set: Inhibition of EGFR (unknown origin).
For data set [23], the system named is MIA PaCa-2. Kind of data set: Antitumor activity against human MIA PaCa-2 cells xenografted in CD-1 mouse assessed as tumor inhibition at 20 mg/kg, po BID for 22 days relative to control. In kind it is functional. The following applies: MIA PaCa-2, 528 h, time 22 day, read-out: TGI.
Data set [24] is described as follows: Clearance in CD-1 mouse at 5 mg/kg, ip measured after 24 hrs by LC-MS/MS analysis. Format: ADME, organism-based. The following applies: in vivo.
Data set [25] has as its system MIA PaCa-2. Kind of data set: Antitumor activity against human MIA PaCa-2 cells xenografted in CD-1 mouse assessed as tumor growth inhibition at 20 mg/kg BID for 22 days relative to control. In kind it is functional. The conditions noted are these: MIA PaCa-2, 528 h, time 22 day, read-out: TGI.
The test system of data set [26] is MIA PaCa-2. Kind of data set: Antiproliferative activity against human MIA PaCa-2 cells harboring KRAS G12C mutant assessed as reduction in cell viability incubated for 72 hrs by MTT assay. In kind it is functional, cell-based. The following applies: MIA PaCa-2, 72 h.
For data set [27], the system named is MIA PaCa-2. Kind of data set: Antitumor activity against human MIA PaCa-2 cells xenografted in CD-1 mouse assessed as in tumor growth inhibition at 20 mg/kg, po BID for 22 days relative to control. The conditions noted are these: MIA PaCa-2, 528 h, time 22 day, read-out: TGI. In kind it is functional.

A word on the IC50: it is the midpoint of a concentration-inhibition curve. As usually defined, the half-life is the time needed for the level to fall by half in the phase considered. By DC50 is commonly meant the concentration giving 50% degradation. What is called AUC is the area under the concentration-time curve, a measure of exposure. A word on the Ki: it is a dissociation constant, usually derived from enzyme kinetics or from competition with a known ligand. Broadly, the bioavailability is dose-corrected exposure relative to a reference, in per cent. A lower bioavailability goes with poor availability. The CL/F is clearance divided by bioavailability, as obtained after extravascular dosing.

Chain of von Hippel-Lindau disease tumor suppressor/Son of sevenless homolog 1 (Homo sapiens, UniProt Q07889+P40337, G12R) (P40337 whole entry, looked up, stated change not applied, one chain of several): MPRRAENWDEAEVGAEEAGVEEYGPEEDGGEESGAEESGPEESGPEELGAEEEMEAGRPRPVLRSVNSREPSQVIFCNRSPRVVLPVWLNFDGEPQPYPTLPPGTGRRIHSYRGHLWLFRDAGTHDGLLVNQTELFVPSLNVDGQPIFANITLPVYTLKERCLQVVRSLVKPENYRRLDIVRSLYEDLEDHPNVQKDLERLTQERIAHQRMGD
Chain of von Hippel-Lindau disease tumor suppressor/Son of sevenless homolog 1 (Homo sapiens, UniProt Q07889+P40337, G12S) (P40337 whole entry, looked up, stated change not applied, one chain of several): as above
Chain of von Hippel-Lindau disease tumor suppressor/Son of sevenless homolog 1 (Homo sapiens, UniProt Q07889+P40337, G12C) (P40337 whole entry, looked up, stated change not applied, one chain of several): as above
Chain of von Hippel-Lindau disease tumor suppressor/Son of sevenless homolog 1 (Homo sapiens, UniProt Q07889+P40337, G13D) (P40337 whole entry, looked up, stated change not applied, one chain of several): as above
Chain of von Hippel-Lindau disease tumor suppressor/Son of sevenless homolog 1 (Homo sapiens, UniProt Q07889+P40337, G12V) (P40337 whole entry, looked up, stated change not applied, one chain of several): as above
Chain of von Hippel-Lindau disease tumor suppressor/Son of sevenless homolog 1 (Homo sapiens, UniProt Q07889+P40337, G12D) (P40337 whole entry, looked up, stated change not applied, one chain of several): as above
Chain of Epidermal growth factor receptor (P00533 whole entry): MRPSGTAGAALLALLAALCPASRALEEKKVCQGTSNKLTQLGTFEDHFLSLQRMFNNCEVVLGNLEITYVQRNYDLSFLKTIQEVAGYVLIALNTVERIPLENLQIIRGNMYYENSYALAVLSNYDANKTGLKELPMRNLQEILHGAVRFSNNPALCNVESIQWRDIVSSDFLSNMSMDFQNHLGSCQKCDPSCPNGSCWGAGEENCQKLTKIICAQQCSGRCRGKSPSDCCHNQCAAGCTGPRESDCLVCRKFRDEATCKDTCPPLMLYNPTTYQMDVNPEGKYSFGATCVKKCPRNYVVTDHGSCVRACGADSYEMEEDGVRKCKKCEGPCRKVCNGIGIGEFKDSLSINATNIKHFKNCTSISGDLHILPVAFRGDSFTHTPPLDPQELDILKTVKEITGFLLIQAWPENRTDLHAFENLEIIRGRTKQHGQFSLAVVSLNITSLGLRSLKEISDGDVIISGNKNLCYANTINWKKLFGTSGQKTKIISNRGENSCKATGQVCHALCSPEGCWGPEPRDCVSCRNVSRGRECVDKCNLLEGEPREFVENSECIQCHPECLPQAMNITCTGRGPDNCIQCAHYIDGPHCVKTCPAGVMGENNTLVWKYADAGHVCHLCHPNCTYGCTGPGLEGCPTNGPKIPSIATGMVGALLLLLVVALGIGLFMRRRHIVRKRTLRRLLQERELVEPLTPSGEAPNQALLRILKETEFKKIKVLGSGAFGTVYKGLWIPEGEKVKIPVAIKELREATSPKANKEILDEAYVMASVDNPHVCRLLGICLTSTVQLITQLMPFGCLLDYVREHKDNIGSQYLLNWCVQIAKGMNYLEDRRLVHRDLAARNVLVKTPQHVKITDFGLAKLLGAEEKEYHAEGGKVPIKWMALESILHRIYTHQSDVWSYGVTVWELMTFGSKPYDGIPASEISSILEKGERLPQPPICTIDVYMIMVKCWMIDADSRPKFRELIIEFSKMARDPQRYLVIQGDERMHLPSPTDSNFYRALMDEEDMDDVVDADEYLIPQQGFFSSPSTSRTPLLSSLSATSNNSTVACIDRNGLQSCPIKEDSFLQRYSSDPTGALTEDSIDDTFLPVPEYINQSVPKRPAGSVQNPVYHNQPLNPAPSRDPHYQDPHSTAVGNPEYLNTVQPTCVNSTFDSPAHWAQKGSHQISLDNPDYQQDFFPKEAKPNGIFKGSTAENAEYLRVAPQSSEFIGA
Chain of von Hippel-Lindau disease tumor suppressor/Son of sevenless homolog 1 (Homo sapiens, UniProt Q07889+P40337) (P40337 whole entry, one chain of several): as the sequence (P40337 whole entry, looked up, stated change not applied, one chain of several) above

In the case of `Cc1nc(N[C@H](C)c2cccc(C(F)F)c2F)c2cc3c(cc2n1)OC[C@H]1CN(C(=O)C2(C#N)CC2)CCN31`, the concentration for half-maximal inhibition (IC50) was 5 nM in data set [1] and 178 nM in the data set with MIA PaCa-2 [4]. The inhibition in vivo at 50 mg/kg in the data set with MIA PaCa-2 [2] was found to be 71%. Besides, in data set [3], the CLint scaled amounted to 37.2 mL/min/kg. Moreover, the half-life in [5] was 1.12 h.
In turn, `COc1cc2nc(C)nc(N[C@H](C)c3cc(N)cc(C(F)(F)F)c3)c2cc1O[C@H]1CCOC1` had a half-maximal inhibitory concentration (IC50) in the data set with K562 of 37 nM.
Take `COc1cc2nc(C)nc(N[C@H](C)c3cc(N)cc(C(F)(F)F)c3)c2cc1C1CCN(C(=O)CCCCCC(=O)N[C@H](C(=O)N2C[C@H](O)C[C@H]2C(=O)N[C@@H](C)c2ccc(-c3scnc3C)cc2)C(C)(C)C)CC1`: the DC50 worked out at 8.41 nM in data set [6]; 15.7 nM in data set [10]; 8.41 nM in [11]; 8.41 nM in data set [12]; 8.41 nM in [14]; 8.41 nM in [15]. In [16], the DC50 was 8.41 nM. Also, the IC50 in the data set on NCI-H460 and in the data set on CAL-62 was 6.97 nM throughout. The inhibition in vivo at 10 mg/kg in the data set on NCI-H358 [7] and with NCI-H358 [8] was greater than 65% each time. In data set [9], the half-life is 9.69 h. In data set [13], this molecule had an AUC of 14100 ng·h/mL.
Consider `COC(=O)N1CCN2c3cc4c(N[C@H](C)c5cccc(C(F)F)c5F)nnc(C)c4cc3OC[C@H]2C1`, for which the inhibitory constant (Ki) in data set [17] amounted to 3.9 nM. The IC50 is 1.6 nM in data set [1], 1.1 nM in data set [21], greater than 10000 nM in data set [22] and 43 nM in the data set on MIA PaCa-2 [26]. The same molecule gave a half-life in data set [18] of 6.4 h. In [19], this molecule gave a Vdss of 0.33 L/kg. The bioavailability in [20] is 65.8%. For the same molecule, the inhibition in vivo at 20 mg/kg came out at 104% in the data set with MIA PaCa-2 [23], 42% with MIA PaCa-2 [25] and 87% with MIA PaCa-2 [27]. In [24], this molecule came in with an apparent clearance CL/F of 1.7 mL/min/kg.
